In US9776995B2, “Bicyclic sulfonamide compounds as sodium channel inhibitors” (AMGEN INC., priority 2013, dated 2017):
Like-named read-outs stand apart in the source and are kept apart here. One block for each compound: values may come before it.

Tests used:
Nav 1.5 = Nav 1.5 (Homo sapiens (Human), UniProt Q14524); experiment: in-vitro Nav 1.5 PX data; conditions: read-out: Nav 1.5 PX IC50
Nav 1.7 = Nav 1.7 (Homo sapiens (Human), UniProt Q15858); experiment: in-vitro Nav 1.7 PX data; format: cell-based
Chain of Nav 1.7 (Q15858 whole entry): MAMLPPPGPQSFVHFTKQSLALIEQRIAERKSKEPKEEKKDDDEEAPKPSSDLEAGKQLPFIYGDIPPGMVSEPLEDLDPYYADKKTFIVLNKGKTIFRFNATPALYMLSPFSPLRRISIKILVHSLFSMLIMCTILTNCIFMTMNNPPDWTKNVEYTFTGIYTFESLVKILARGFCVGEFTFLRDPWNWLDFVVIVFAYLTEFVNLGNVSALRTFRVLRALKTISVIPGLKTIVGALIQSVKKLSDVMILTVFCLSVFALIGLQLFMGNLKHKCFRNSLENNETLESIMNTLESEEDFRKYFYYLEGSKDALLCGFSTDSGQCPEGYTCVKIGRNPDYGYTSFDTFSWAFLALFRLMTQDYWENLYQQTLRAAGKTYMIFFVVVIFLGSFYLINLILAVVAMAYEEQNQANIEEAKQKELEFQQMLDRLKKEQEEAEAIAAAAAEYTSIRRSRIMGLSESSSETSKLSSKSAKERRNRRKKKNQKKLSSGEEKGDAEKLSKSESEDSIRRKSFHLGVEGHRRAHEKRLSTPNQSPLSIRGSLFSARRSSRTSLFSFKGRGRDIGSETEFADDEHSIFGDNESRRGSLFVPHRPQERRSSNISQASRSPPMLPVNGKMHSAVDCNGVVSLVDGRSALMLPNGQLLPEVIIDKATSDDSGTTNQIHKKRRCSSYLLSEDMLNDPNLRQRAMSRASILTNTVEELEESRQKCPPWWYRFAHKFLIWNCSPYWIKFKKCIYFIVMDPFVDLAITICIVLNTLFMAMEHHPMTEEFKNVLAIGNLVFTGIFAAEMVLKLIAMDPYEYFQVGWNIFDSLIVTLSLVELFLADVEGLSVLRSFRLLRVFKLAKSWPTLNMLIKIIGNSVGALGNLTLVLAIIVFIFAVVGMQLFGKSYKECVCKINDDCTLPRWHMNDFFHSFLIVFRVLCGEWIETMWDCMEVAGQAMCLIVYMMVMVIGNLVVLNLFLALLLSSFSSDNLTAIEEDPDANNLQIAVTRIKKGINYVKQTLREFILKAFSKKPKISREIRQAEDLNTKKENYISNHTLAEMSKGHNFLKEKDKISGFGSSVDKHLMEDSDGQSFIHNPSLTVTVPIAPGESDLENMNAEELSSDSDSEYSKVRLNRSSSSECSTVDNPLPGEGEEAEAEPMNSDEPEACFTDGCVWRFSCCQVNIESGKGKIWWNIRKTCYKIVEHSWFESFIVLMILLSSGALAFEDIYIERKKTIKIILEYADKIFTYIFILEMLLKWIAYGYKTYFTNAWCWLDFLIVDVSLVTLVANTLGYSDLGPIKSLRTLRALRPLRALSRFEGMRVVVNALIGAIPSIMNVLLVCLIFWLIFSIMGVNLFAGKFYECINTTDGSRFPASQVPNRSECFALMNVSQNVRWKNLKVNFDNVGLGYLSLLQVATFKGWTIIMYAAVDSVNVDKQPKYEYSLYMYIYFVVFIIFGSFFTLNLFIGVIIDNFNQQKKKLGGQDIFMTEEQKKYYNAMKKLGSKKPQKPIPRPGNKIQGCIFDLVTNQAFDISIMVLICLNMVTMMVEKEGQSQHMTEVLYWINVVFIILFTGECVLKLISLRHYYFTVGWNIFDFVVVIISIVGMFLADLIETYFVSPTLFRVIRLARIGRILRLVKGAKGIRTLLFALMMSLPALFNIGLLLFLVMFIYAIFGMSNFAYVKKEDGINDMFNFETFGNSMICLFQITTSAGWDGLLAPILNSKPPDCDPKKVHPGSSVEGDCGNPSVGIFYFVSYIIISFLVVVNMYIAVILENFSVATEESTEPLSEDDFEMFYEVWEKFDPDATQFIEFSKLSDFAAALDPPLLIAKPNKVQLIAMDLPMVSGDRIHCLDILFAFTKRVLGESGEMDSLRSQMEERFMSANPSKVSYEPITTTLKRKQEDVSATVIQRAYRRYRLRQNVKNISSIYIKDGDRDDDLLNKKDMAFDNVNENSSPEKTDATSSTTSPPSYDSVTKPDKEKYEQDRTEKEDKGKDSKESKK

Chain of Nav 1.5 (Q14524 whole entry): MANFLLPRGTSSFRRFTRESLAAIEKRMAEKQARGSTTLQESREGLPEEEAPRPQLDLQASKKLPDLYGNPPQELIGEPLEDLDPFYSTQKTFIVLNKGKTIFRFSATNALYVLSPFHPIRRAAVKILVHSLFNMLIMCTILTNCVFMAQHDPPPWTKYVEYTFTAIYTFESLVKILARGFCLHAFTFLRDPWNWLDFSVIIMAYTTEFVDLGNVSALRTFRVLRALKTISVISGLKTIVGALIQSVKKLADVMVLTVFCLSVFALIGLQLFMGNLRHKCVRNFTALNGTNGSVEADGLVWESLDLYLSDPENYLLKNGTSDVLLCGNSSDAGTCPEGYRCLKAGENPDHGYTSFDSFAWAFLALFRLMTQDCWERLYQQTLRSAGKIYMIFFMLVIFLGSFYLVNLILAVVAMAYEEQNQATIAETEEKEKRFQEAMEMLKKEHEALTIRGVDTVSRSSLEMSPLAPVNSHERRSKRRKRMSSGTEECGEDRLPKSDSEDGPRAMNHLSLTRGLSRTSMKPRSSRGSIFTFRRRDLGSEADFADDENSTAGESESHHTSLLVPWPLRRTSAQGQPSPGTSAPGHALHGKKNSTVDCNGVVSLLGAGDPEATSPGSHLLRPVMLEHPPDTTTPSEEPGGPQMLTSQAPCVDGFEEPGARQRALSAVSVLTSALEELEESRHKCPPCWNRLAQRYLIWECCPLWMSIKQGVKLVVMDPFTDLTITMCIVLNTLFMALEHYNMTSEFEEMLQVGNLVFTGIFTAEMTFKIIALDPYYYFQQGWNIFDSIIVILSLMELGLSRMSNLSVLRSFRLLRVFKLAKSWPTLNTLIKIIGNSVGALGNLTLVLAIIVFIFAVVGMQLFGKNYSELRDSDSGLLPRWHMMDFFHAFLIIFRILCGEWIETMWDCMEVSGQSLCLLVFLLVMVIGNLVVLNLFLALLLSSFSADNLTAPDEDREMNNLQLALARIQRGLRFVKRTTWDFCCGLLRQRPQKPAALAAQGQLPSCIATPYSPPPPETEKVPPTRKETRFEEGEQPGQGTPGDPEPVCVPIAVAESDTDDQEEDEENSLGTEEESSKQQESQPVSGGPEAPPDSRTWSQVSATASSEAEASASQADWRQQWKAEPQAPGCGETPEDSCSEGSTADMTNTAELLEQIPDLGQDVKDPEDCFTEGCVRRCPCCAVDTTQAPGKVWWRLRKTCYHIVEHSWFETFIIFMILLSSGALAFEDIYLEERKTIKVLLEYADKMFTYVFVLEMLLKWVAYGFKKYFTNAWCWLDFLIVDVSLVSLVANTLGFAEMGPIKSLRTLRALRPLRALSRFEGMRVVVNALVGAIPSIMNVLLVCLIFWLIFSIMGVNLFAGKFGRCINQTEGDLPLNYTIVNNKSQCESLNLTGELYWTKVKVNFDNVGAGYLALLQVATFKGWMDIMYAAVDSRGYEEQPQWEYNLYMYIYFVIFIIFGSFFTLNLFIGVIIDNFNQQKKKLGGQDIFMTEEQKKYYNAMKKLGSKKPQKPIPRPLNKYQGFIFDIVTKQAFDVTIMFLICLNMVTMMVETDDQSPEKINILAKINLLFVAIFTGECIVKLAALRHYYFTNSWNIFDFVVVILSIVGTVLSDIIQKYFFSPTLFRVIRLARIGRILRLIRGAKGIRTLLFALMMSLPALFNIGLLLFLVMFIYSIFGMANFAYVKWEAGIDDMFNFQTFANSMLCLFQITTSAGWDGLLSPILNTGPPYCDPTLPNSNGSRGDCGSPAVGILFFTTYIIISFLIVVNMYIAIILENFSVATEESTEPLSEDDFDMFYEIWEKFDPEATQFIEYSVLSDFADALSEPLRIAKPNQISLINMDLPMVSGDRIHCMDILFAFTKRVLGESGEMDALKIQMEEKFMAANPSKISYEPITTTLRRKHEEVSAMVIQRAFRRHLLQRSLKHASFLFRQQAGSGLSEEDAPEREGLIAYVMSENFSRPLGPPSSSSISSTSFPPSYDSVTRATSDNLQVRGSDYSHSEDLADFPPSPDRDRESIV

Compound: COc1cc(-c2cc(F)cnc2OC)c(C#N)cc1-c1ncnc2cc(S(=O)(=O)Nc3nncs3)ccc12 [Example 20, 4-(5-CYANO-4-(5-FLUORO-2-METHOXYPYRIDIN-3-YL)-2-METHOXYPHENYL)-N-(1,3,4-THIADIAZOL-2-YL)QUINAZOLINE-7-SULFONAMIDE]
- IC50 (Nav 1.5; in-vitro PX (PatchXpress) data): > 10000 nM
- IC50 (Nav 1.7): 182 nM

Compound: COc1cc(-c2ccc(F)c(C)c2)c(C#N)cc1-c1nccc2cc(S(=O)(=O)Nc3ccon3)ccc12 [Example 85, 1-(2-cyano-4′-fluoro-5-methoxy-3′-methyl-4-biphenylyl)-N-3-isoxazolyl-6-isoquinolinesulfonamide]
- IC50 (Nav 1.5; PatchXpress (PX), in vitro): > 10000 nM
- IC50 (Nav 1.7; PatchXpress (PX), in vitro): 28.8 nM

Compound: COc1cc(-c2cccc(F)c2)c(Cl)cc1-c1nncc2cc(S(=O)(=O)Nc3ccon3)ccc12 [Example 10, 1-(2-CHLORO-3′-FLUORO-5-METHOXY-[1,1′-BIPHENYL]-4-YL)-N-(ISOXAZOL-3-YL)PHTHALAZINE-6-SULFONAMIDE]
- IC50 (Nav 1.5; in-vitro PX data): > 10000 nM
- IC50 (Nav 1.7; in-vitro PX data): 84.1 nM

Compound: 1-(3′-chloro-2-cyano-5-methoxy-5′-methyl-4-biphenylyl)-N-1,3,4-thiadiazol-2-yl-6-isoquinolinesulfonamide [Example 225]
- IC50 (Nav 1.5; in-vitro PX): > 10000 nM
- IC50 (Nav 1.7; in-vitro PX): 11.1 nM

Compound: COc1cc(-c2cc(F)cc(F)c2)ccc1-c1nccc2cc(S(=O)(=O)Nc3cccnn3)ccc12 [Example 138, 1-(3′,5′-difluoro-3-methoxy-4-biphenylyl)-N-3-pyridazinyl-6-isoquinolinesulfonamide]
- IC50 (Nav 1.5; in-vitro PX data): > 10000 nM
- IC50 (Nav 1.7; in-vitro PX data): 251 nM

Compound: COc1cc(-c2ccc(Cl)c(F)c2)c(C#N)cc1-c1nccc2cc(S(=O)(=O)Nc3ccon3)ccc12 [Example 76, 1-(4′-chloro-2-cyano-3′-fluoro-5-methoxy-4-biphenylyl)-N-3-isoxazolyl-6-isoquinolinesulfonamide]
- IC50 (Nav 1.5; PatchXpress (PX), in vitro): > 10000 nM
- IC50 (Nav 1.7; PatchXpress (PX), in vitro): 58.5 nM

Compound: COc1cc(Cl)c(-c2cccc(F)c2)cc1-c1nccc2cc(S(=O)(=O)Nc3ncccn3)ccc12 [Example 122, 1-(6-chloro-3′-fluoro-4-methoxy-3-biphenylyl)-N-2-pyrimidinyl-6-isoquinolinesulfonamide]
- IC50 (Nav 1.5; in-vitro PX data): > 10000 nM
- IC50 (Nav 1.7; in-vitro PX data): 112 nM

Compound: COc1cc(-c2cccc(F)c2)c(Cl)cc1-c1ncc(O)c2cc(S(=O)(=O)Nc3ccon3)ccc12 [Example 17, 1-(2-CHLORO-3′-FLUORO-5-METHOXY-[1,1′-BIPHENYL]-4-YL)-4-HYDROXY-N-(ISOXAZOL-3-YL)ISOQUINOLINE-6-SULFONAMIDE]
- IC50 (Nav 1.5; in-vitro PX): > 10000 nM
- IC50 (Nav 1.7; in-vitro PX): 85.1 nM

Compound: COc1cc(-c2cc(F)cc(F)c2)ccc1-c1nccc2cc(S(=O)(=O)Nc3ncc(F)cn3)ccc12 [Example 135, 1-(3′,5′-difluoro-3-methoxy-4-biphenylyl)-N-(5-fluoro-2-pyrimidinyl)-6-isoquinolinesulfonamide]
- IC50 (Nav 1.5; in-vitro PX data): > 10000 nM
- IC50 (Nav 1.7; in-vitro PX data): 378 nM

Compound: COc1cc(-c2cc(C)cc(Cl)c2)c(C#N)cc1-c1nccc2cc(S(=O)(=O)Nc3ccon3)ccc12 [Example 114, 1-(3′-chloro-2-cyano-5-methoxy-5′-methyl-4-biphenylyl)-N-3-isoxazolyl-6-isoquinolinesulfonamide]
- IC50 (Nav 1.5; in-vitro PX data): > 10000 nM
- IC50 (Nav 1.7; in-vitro PX data): 28.8 nM

Compound: 1-(2-chloro-3′-fluoro-5-methoxy-4-biphenylyl)-N-2-pyrimidinyl-6-isoquinolinesulfonamide [Example 108]
- IC50 (Nav 1.5; in-vitro PX data): > 10000 nM
- IC50 (Nav 1.7; in-vitro PX data): 86.2 nM

Compound: COc1cc(-c2cc(F)cc(F)c2)ccc1-c1nccc2cc(S(=O)(=O)Nc3ccon3)ccc12 [Example 142, 1-(3′,5′-difluoro-3-methoxy-4-biphenylyl)-N-3-isoxazolyl-6-isoquinolinesulfonamide]
- IC50 (Nav 1.5; in-vitro Nav 1.5 PX data): > 30000 nM
- IC50 (Nav 1.7; in-vitro Nav 1.7 PX data): 168 nM

Compound: COc1cc(-c2cc(F)cc(F)c2)ccc1-c1nccc2cc(S(=O)(=O)Nc3ccsn3)ccc12 [Example 5, 1-(3′,5′-DIFLUORO-3-METHOXY-[1,1′-BIPHENYL]-4-YL)-N-(ISOTHIAZOL-3-YL)ISOQUINOLINE-6-SULFONAMIDE 2,2,2-TRIFLUOROACETATE]
- IC50 (Nav 1.5; in-vitro PX data): > 10000 nM
- IC50 (Nav 1.7): 337 nM

Compound: 1-(2-cyano-5-methoxy-2′-methyl-4-biphenylyl)-N-1,3,4-thiadiazol-2-yl-6-isoquinolinesulfonamide [Example 220]
- IC50 (Nav 1.5; in-vitro PX): > 10000 nM
- IC50 (Nav 1.7; in-vitro PX): 40.1 nM

Further lines, with some results ahead:

- IC50 (Nav 1.7; in-vitro PX): 22.9 nM
Compound: COc1cc(-c2ccc(C)c(F)c2)c(C#N)cc1-c1nccc2cc(S(=O)(=O)Nc3nncs3)ccc12 [Example 218, 1-(2-cyano-3′-fluoro-5-methoxy-4′-methyl-4-biphenylyl)-N-1,3,4-thiadiazol-2-yl-6-isoquinolinesulfonamide]
- IC50 (Nav 1.5; in-vitro PX): > 10000 nM

- IC50 (Nav 1.7; in-vitro Nav 1.7 PX data): 13.8 nM
Compound: COc1cc(-c2cc(C)cc(Cl)c2)c(C#N)cc1-c1nccc2cc(S(=O)(=O)Nc3ccncn3)ccc12 [Example 160, 1-(3′-chloro-2-cyano-5-methoxy-5′-methyl-4-biphenylyl)-N-4-pyrimidinyl-6-isoquinolinesulfonamide]
- IC50 (Nav 1.5; in-vitro Nav 1.5 PX data): 18300 nM

- IC50 (Nav 1.7; in-vitro PX (PatchXpress) data): 77 nM
Compound: COc1cc(Oc2cc(C)cc(F)c2)ccc1-c1nccc2cc(S(=O)(=O)Nc3ccncn3)ccc12 [Example 179, 1-(4-(3-fluoro-5-methylphenoxy)-2-methoxyphenyl)-N-4-pyrimidinyl-6-isoquinolinesulfonamide]
- IC50 (Nav 1.5; in-vitro PX (PatchXpress) data): > 10000 nM

- IC50 (Nav 1.7; in-vitro PX): 16.9 nM
Compound: COc1cc(-c2cccc(C(F)(F)F)c2)c(C#N)cc1-c1ncnc2cc(S(=O)(=O)Nc3ccon3)ccc12 [Example 211, 4-(2-cyano-5-methoxy-3′-(trifluoromethyl)-4-biphenylyl)-N-3-isoxazolyl-7-quinazolinesulfonamide]
- IC50 (Nav 1.5; in-vitro PX): > 10000 nM

- IC50 (Nav 1.7; in-vitro PX): 230 nM
Compound: N#CCOc1cc(-c2cccc(F)c2)ccc1-c1nccc2cc(S(=O)(=O)Nc3ccncn3)ccc12 [Example 208, 1-(3-(cyanomethoxy)-3′-fluoro-4-biphenylyl)-N-4-pyrimidinyl-6-isoquinolinesulfonamide]
- IC50 (Nav 1.5; in-vitro PX): > 30000 nM

- IC50 (Nav 1.7; in-vitro PX): 382 nM
Compound: COc1nc(N2CC(F)(F)C2)c(Cl)cc1-c1nccc2cc(S(=O)(=O)Nc3nncs3)ccc12 [Example 236, 1-(5-chloro-6-(3,3-difluoro-1-azetidinyl)-2-methoxy-3-pyridinyl)-N-1,3,4-thiadiazol-2-yl-6-isoquinolinesulfonamide]
- IC50 (Nav 1.5; in-vitro PX): > 30000 nM

- IC50 (Nav 1.7; in-vitro PX (PatchXpress) data): 197 nM
Compound: COc1cc(Oc2ccc(F)c(F)c2)ccc1-c1nccc2cc(S(=O)(=O)Nc3ccncn3)ccc12 [Example 175, 1-(4-(3,4-difluorophenoxy)-2-methoxyphenyl)-N-4-pyrimidinyl-6-isoquinolinesulfonamide]
- IC50 (Nav 1.5; in-vitro PX (PatchXpress) data): > 10000 nM

- IC50 (Nav 1.7; in-vitro Nav 1.7 PX data): 71.9 nM
Compound: COc1ccc(-c2ccc(C(F)(F)F)cc2)cc1-c1nccc2cc(S(=O)(=O)Nc3ccncn3)ccc12 [Example 147, 1-(4-methoxy-4′-(trifluoromethyl)-3-biphenylyl)-N-4-pyrimidinyl-6-isoquinolinesulfonamide]
- IC50 (Nav 1.5; in-vitro Nav 1.5 PX data): > 10000 nM

- IC50 (Nav 1.7; in-vitro PX): 69.1 nM
Compound: COc1cc(-c2cccc(F)c2)c(C#N)cc1-c1ncnc2cc(S(=O)(=O)Nc3nncs3)ccc12 [Example 241, 4-(2-cyano-3′-fluoro-5-methoxy-4-biphenylyl)-N-1,3,4-thiadiazol-2-yl-7-quinazolinesulfonamide]
- IC50 (Nav 1.5; in-vitro PX): > 10000 nM

- IC50 (Nav 1.7; in-vitro PX): 12.7 nM
Compound: COc1cc(-c2ccc(F)c(C)c2)c(C#N)cc1-c1nccc2cc(S(=O)(=O)Nc3nncs3)ccc12 [Example 230, 1-(2-cyano-4′-fluoro-5-methoxy-3′-methyl-4-biphenylyl)-N-1,3,4-thiadiazol-2-yl-6-isoquinolinesulfonamide]
- IC50 (Nav 1.5; in-vitro PX): > 10000 nM

- IC50 (Nav 1.7; in-vitro PX (PatchXpress) data): 56 nM
Compound: COc1cc(-c2ccc(C(F)(F)F)cc2)c(C#N)cc1-c1nccc2cc(S(=O)(=O)Nc3ccncn3)ccc12 [Example 185, 1-(2-cyano-5-methoxy-4′-(trifluoromethyl)-4-biphenylyl)-N-4-pyrimidinyl-6-isoquinolinesulfonamide]
- IC50 (Nav 1.5; in-vitro PX (PatchXpress) data): 20700 nM

- IC50 (Nav 1.7; in-vitro PX (PatchXpress) data): 99.3 nM
Compound: COc1cc(Oc2ccc(C)c(F)c2)ccc1-c1nccc2cc(S(=O)(=O)Nc3ccncn3)ccc12 [Example 177, 1-(4-(3-fluoro-4-methylphenoxy)-2-methoxyphenyl)-N-4-pyrimidinyl-6-isoquinolinesulfonamide]
- IC50 (Nav 1.5; in-vitro PX (PatchXpress) data): > 10000 nM

- IC50 (Nav 1.7; in-vitro Nav 1.7 PX data): 45.5 nM
Compound: COc1cc(-c2ccc(F)c(C)c2)c(C#N)cc1-c1nccc2cc(S(=O)(=O)Nc3ccncn3)ccc12 [Example 155, 1-(2-cyano-4′-fluoro-5-methoxy-3′-methyl-4-biphenylyl)-N-4-pyrimidinyl-6-isoquinolinesulfonamide]
- IC50 (Nav 1.5; in-vitro Nav 1.5 PX data): 23400 nM

- IC50 (Nav 1.7; in-vitro PX): 138 nM
Compound: COc1cc(-c2cc(F)cc(F)c2)c(Cl)cc1-c1nn(C)c(=O)c2cc(S(=O)(=O)Nc3ccon3)ccc12 [Example 233, 1-(2-chloro-3′,5′-difluoro-5-methoxy-4-biphenylyl)-N-3-isoxazolyl-3-methyl-4-oxo-3,4-dihydro-6-phthalazinesulfonamide]
- IC50 (Nav 1.5; in-vitro PX): > 30000 nM

- IC50 (Nav 1.7; in-vitro PX (PatchXpress) data): 28.8 nM
Compound: COc1cc(-c2cccc(F)c2)c(C#N)cc1-c1ncnc2cc(S(=O)(=O)Nc3ccon3)ccc12 [Example 203, 4-(2-cyano-3′-fluoro-5-methoxy-4-biphenylyl)-N-3-isoxazolyl-7-quinazolinesulfonamide]
- IC50 (Nav 1.5; in-vitro PX (PatchXpress) data): > 10000 nM

- IC50 (Nav 1.7; in-vitro PX (PatchXpress) data): 46 nM
Compound: COc1cc(-c2cc(F)cc(F)c2)c(C#N)cc1-c1ncnc2cc(S(=O)(=O)Nc3ccon3)ccc12 [Example 202, 4-(2-cyano-3′,5′-difluoro-5-methoxy-4-biphenylyl)-N-3-isoxazolyl-7-quinazolinesulfonamide]
- IC50 (Nav 1.5; in-vitro PX (PatchXpress) data): > 10000 nM

- IC50 (Nav 1.7; in-vitro Nav 1.7 PX data): 171 nM
Compound: COc1cc(Oc2ccccc2C)ccc1-c1nccc2cc(S(=O)(=O)Nc3ccncn3)ccc12 [Example 170, 1-(2-methoxy-4-(2-methylphenoxy)phenyl)-N-4-pyrimidinyl-6-isoquinolinesulfonamide]
- IC50 (Nav 1.5; in-vitro Nav 1.5 PX data): > 10000 nM

- IC50 (Nav 1.7; in-vitro Nav 1.7 PX data): 106 nM
Compound: COc1cc(-c2cccc(F)c2)c(C#N)cc1-c1nccc2cc(S(=O)(=O)Nc3ccncn3)ccc12 [Example 144, 1-(2-cyano-3′-fluoro-5-methoxy-4-biphenylyl)-N-4-pyrimidinyl-6-isoquinolinesulfonamide]
- IC50 (Nav 1.5; in-vitro Nav 1.5 PX data): > 10000 nM
